Experimental data as given in the NIST ThermoML archive (doi:10.1016/j.jct.2013.05.011).
± gives the expanded uncertainty stated by the source.

What was measured:
[1] = activity coefficient (dimensionless); of the first substance listed, at infinite dilution; xn = mol fraction of the nth substance listed; settings: 101 kPa, Liquid, Chromatography, x1 = 0
[2] = 288.15 K; 101.33 kPa; Liquid; Vibrating tube method
[3] = refractive index (Na D-line) (dimensionless); settings: 293.15 K; 101.33 kPa; Liquid; Standard Abbe refractometry

Structure (SMILES)	activity coefficient ([1]; 333.2 K)	activity coefficient ([1]; 348.2 K)	activity coefficient ([1]; 363.2 K)	mass density [2]	refractive index [3]
C=CCCCCC [1-heptene] + OCCOCCO	72.3 ± 5	66.6 ± 4.6	60.5 ± 4.1	–	–
C=CCCCCC [1-heptene] + OCCOCCOCCO	34.4 ± 2.4	30.6 ± 2.1	27.5 ± 1.9	–	–
C#CCCCCC [1-heptyne] + OCCOCCO	20.3 ± 1.4	20.8 ± 1.4	19.3 ± 1.3	–	–
C#CCCCCC [1-heptyne] + OCCOCCOCCO	10.2 ± 0.7	9.04 ± 0.62	8.99 ± 0.61	–	–
C#CCCCC [1-hexyne] + OCCOCCO	14.1 ± 0.96	14.6 ± 1	13.8 ± 0.94	–	–
C#CCCCC [1-hexyne] + OCCOCCOCCO	7.01 ± 0.48	7.03 ± 0.48	6.69 ± 0.46	–	–
C#CCCCCCC [1-octyne] + OCCOCCO	29.9 ± 2	29.7 ± 2	27 ± 1.9	–	–
C#CCCCCCC [1-octyne] + OCCOCCOCCO	14.4 ± 0.98	12.8 ± 0.87	12.2 ± 0.83	–	–
C=CCCC [1-pentene] + OCCOCCO	35.3 ± 4.4	32.9 ± 4.1	27.6 ± 3.4	–	–
C=CCCC [1-pentene] + OCCOCCOCCO	17.5 ± 2.2	16.1 ± 2	14.8 ± 1.8	–	–
C#CCCC [1-pentyne] + OCCOCCO	9.93 ± 1.2	10.5 ± 1.3	10.2 ± 1.3	–	–
C#CCCC [1-pentyne] + OCCOCCOCCO	5.07 ± 0.63	5.11 ± 0.64	5.01 ± 0.62	–	–
c1ccccc1 [benzene] + OCCOCCO	7.33 ± 0.5	7.21 ± 0.49	7.05 ± 0.48	–	–
c1ccccc1 [benzene] + OCCOCCOCCO	3.91 ± 0.27	3.86 ± 0.26	3.36 ± 0.23	–	–
C1CCCCCC1 [cycloheptane] + OCCOCCO	52.4 ± 3.6	47.4 ± 3.2	42.1 ± 2.9	–	–
C1CCCCCC1 [cycloheptane] + OCCOCCOCCO	29.6 ± 2	22.3 ± 1.5	19.8 ± 1.4	–	–
C1CCCCC1 [cyclohexane] + OCCOCCO	42.7 ± 2.9	39.2 ± 2.7	34.9 ± 2.4	–	–
C1CCCCC1 [cyclohexane] + OCCOCCOCCO	21.1 ± 1.4	18.6 ± 1.3	16.8 ± 1.1	–	–
C1CCCCCCC1 [cyclooctane] + OCCOCCO	70.7 ± 4.8	61.3 ± 4.2	52.2 ± 3.6	–	–
C1CCCCCCC1 [cyclooctane] + OCCOCCOCCO	35.3 ± 2.4	27.2 ± 1.9	23.9 ± 1.6	–	–
C1CCCC1 [cyclopentane] + OCCOCCO	30.9 ± 2.1	27.6 ± 1.9	25.9 ± 1.8	–	–
C1CCCC1 [cyclopentane] + OCCOCCOCCO	15.2 ± 1	14 ± 0.95	12.7 ± 0.87	–	–
OCCOCCO [diethylene glycol]	–	–	–	1120.05 ± 0.28 kg/m3	1.4471 ± 0.0004
CCO [ethanol] + OCCOCCO	1.47 ± 0.1	1.46 ± 0.1	1.46 ± 0.1	–	–
CCO [ethanol] + OCCOCCOCCO	1.18 ± 0.08	1.15 ± 0.07	1.12 ± 0.07	–	–

Structure (SMILES)	activity coefficient ([1]; 333.2 K)	activity coefficient ([1]; 348.2 K)	activity coefficient ([1]; 363.2 K)	mass density [2]	refractive index [3]
CCc1ccccc1 [ethylbenzene] + OCCOCCO	16.8 ± 1.1	16.1 ± 1.1	15.2 ± 1	–	–
CCc1ccccc1 [ethylbenzene] + OCCOCCOCCO	8.63 ± 0.59	8.21 ± 0.56	7.86 ± 0.54	–	–
CCCCCCC [heptane] + OCCOCCO	131 ± 9	122 ± 8.4	95.4 ± 6.5	–	–
CCCCCCC [heptane] + OCCOCCOCCO	62.3 ± 4.3	52.3 ± 3.6	43.7 ± 3	–	–
C=CCCCC [hex-1-ene] + OCCOCCO	50.7 ± 3.5	47.3 ± 3.2	38.9 ± 2.7	–	–
C=CCCCC [hex-1-ene] + OCCOCCOCCO	24.6 ± 1.7	22.7 ± 1.6	20.4 ± 1.4	–	–
CCCCCC [hexane] + OCCOCCO	95.7 ± 6.6	84 ± 5.8	82.4 ± 5.6	–	–
CCCCCC [hexane] + OCCOCCOCCO	45.8 ± 3.1	40.3 ± 2.8	35.1 ± 2.4	–	–
CO [methanol] + OCCOCCO	0.988 ± 0.062	1.01 ± 0.06	1.02 ± 0.06	–	–
CO [methanol] + OCCOCCOCCO	0.788 ± 0.051	0.787 ± 0.051	–	–	–
CCCCCCCCC [nonane] + OCCOCCO	264 ± 18	230 ± 16	193 ± 13	–	–
CCCCCCCCC [nonane] + OCCOCCOCCO	137 ± 9.4	98.9 ± 6.8	83.1 ± 5.7	–	–
C=CCCCCCC [oct-1-ene] + OCCOCCO	101 ± 6.9	93.5 ± 6.4	82.6 ± 5.7	–	–
C=CCCCCCC [oct-1-ene] + OCCOCCOCCO	55.9 ± 3.8	41.8 ± 2.9	36.8 ± 2.5	–	–
CCCCCCCC [octane] + OCCOCCO	188 ± 13	168 ± 12	146 ± 10	–	–
CCCCCCCC [octane] + OCCOCCOCCO	103 ± 7.1	74 ± 5.1	62.9 ± 4.3	–	–
CCCCC [pentane] + OCCOCCO	70.2 ± 8.7	53.8 ± 6.7	54.2 ± 6.7	–	–
CCCCC [pentane] + OCCOCCOCCO	33.7 ± 4.2	30.8 ± 3.8	23.2 ± 2.9	–	–
CCCO [propan-1-ol] + OCCOCCO	1.8 ± 0.12	1.77 ± 0.12	1.74 ± 0.12	–	–
CCCO [propan-1-ol] + OCCOCCOCCO	1.38 ± 0.09	1.34 ± 0.09	1.31 ± 0.09	–	–
CC(C)O [propan-2-ol] + OCCOCCO	1.79 ± 0.12	1.77 ± 0.12	1.74 ± 0.12	–	–
CC(C)O [propan-2-ol] + OCCOCCOCCO	1.45 ± 0.1	1.4 ± 0.09	1.38 ± 0.09	–	–
Cc1ccccc1 [toluene] + OCCOCCO	11.2 ± 0.77	10.9 ± 0.75	10.5 ± 0.72	–	–
Cc1ccccc1 [toluene] + OCCOCCOCCO	5.88 ± 0.4	5.73 ± 0.39	5.55 ± 0.38	–	–
OCCOCCOCCO [triethylene glycol]	–	–	–	1127.37 ± 0.15 kg/m3	1.4563 ± 0.0004
